Values quoted from earlier work as cited in patent publication US8257686B2, “Compositions and methods relating to prevention of chemotherapy-induced alopecia” (HSF Pharmaceuticals S.A., priority 2000, dated 2012).

System: chemotherapy-induced hair loss
Details: review Dorr 1998; Sredni et al. 1996

| Compound | prevention of chemotherapy-induced hair loss |
| --- | --- |
| Cl[TeH]1(Cl)(Cl)OCCO1 [AS101, ammonium trichloro (dioxy-ethylene-0,0′) tellurate] | More promising results |
| C=C1/C(=C\C=C2/CCC[C@]3(C)[C@@H]([C@H](C)CCCC(C)(C)O)CC[C@@H]23)C[C@@H](O)C[C@@H]1O [calcitriol] | failed |
| Cc1c(C)c2c(c(C)c1O)CC[C@@](C)(CCC[C@H](C)CCC[C@H](C)CCCC(C)C)O2 [alpha-tocopherol] | failed |
| C=C1/C(=C\C=C2/CCC[C@]3(C)[C@@H]([C@H](C)CCCC(C)(C)O)CC[C@@H]23)C[C@@H](O)C[C@@H]1O [1,25-dihydroxyvitamin D3] | showed a marked sex preference |
